Measured values: PMC10608985, “Retention Behavior of Anticancer Thiosemicarbazides in Biomimetic Chromatographic Systems and In Silico Calculations” (Molecules, 2023)

Assays:
[1] = HPLC lipophilicity on IAM (immobilized artificial membrane, phosphatidylcholine) stationary phase; assay type: physicochemical; conditions: pH 7.4; for Log k IAM: Table S2; for log kw IAM: intercept, linear extrapolation to water; for log kw IAM / -S IAM: ACN/20 mM phosphate buffer; for -S IAM: slope of Soczewiński–Wachtmeister equation
Description: (§1) For the evaluation of the compounds the following stationary phases were used: C-18; biomimetic, IAM; cholesterol (Chol); immobilized proteins HSA and AGP. For the lipophilicity determination, MeOH (C-18, Chol) or ACN (IAM) were applied as the organic modifiers. The measurements were performed at pH 7.4 of the mobile phase. The regular changes in the retention of all solutes used as organic modifier content in the mobile phase on three studied stationary phases were found. It is expressed by the Soczewiński–Wachtmeister Equation (1):log k = log kw + S (% organic modifier)(1) where log kw—the intercept; S—the slope of regression curve. […] Log kw as well as S parameters are commonly applied as lipophilicity descriptors.
(§2) HPLC measurements were performed using a liquid chromatograph Knauer (Knauer, Berlin, Germany) with a dual pump, a 20 µL simple injection valve, and a UV–visible detector. The compounds were detected under UV light at 280 nm at room temperature. The retention time of an unretained solute (t0) was determined by the injection of a small amount of citric acid dissolved in water.
A Rexchrom IAM.PC.DD2 (12 μm, 100 × 4.6 mm, 300 Å) (Regis Technologies, Morton Grove, IL, USA) column was used as the stationary phase. The compounds were dissolved at a concentration of 0.5 mg × mL^−1 in MeOH. The mobile phases consisted of different volume fractions of ACN and 20 mM phosphate buffer; the aqueous phase maintained a pH = 7.4 (0.02 M KH2PO4, Na2HPO4 and 0.15 M KCl). The acetonitrile concentration ranged from 0.05 to 0.4 (v/v), depending on the structure of compound, at 0.05 intervals (Table S2 in the Supplementary Materials). The flow rate was 1 mL × min^−1.

[2] = HPLC lipophilicity on cholesterol (Chol) stationary phase; assay type: physicochemical; conditions: pH 7.4; for Log k Chol: Table S3; for log kw Chol: intercept, linear extrapolation to water; for log kw Chol / -S Chol: MeOH/20 mM acetate buffer; for -S Chol: slope of Soczewiński–Wachtmeister equation
Description: as §1, §2
Cogent 4 UDC Cholesterol (150 × 2.1 mm, 4 µm) MicroSolv Technology Corporation (Leland, NC, USA) column was used. The mobile phase consisted of different volume mixtures of MeOH as the organic modifier and 20 mM acetate buffer as the aqueous phase, to obtain pH = 7.4. The concentrations of the organic modifier were in the range from 0.3 to 0.8 (v/v) with step 0.05 or 0.1 (Table S3 in the Supplementary Materials). The flow rate was 0.35 mL × min^−1.

[3] = molecular target: T1, human serum albumin (HSA) (Homo sapiens, UniProt P02768); assay: HPLC on immobilized HSA column, affinity and % plasma–protein binding; assay type: in vitro ADME; conditions: for log K HSA: binding equilibrium constant from calibration curve (Equation 8) of log k HSA; for fraction unbound: human, pH 7.4, % plasma–protein binding converted from log K HSA (Equation 10), read-out: %PPB HSA (converted); for log k HSA: retention on HSA column, 50 mM ammonium acetate pH 7.4 / propan-2-ol 85/15 (v/v)
T1 construct: purchased Chiralpac
Description: (§3) Measurements on HSA and AGP immobilized protein columns were carried out with […] isopropanol content in the aqueous mobile phase.
(§4) The standard calibration curve was used to predict log K values (K—binding equilibrium constant) of investigated compounds to HSA and AGP. Next, the log K values were converted into a percentage of plasma–protein binding (%PPB) of the compounds (Table 2). […] It is the lowest for compound 16 with -NO2 substituent, unsubstituted compound 1, and fluorine derivatives 2 and 9. In a group of […] derivatives in the same position of the phenyl ring, the %PPB to AGP increases with the increase in the atomic weight of the halogen atom and the lipophilicity of the molecule.
as §2
(§5) A human serum albumin (HSA) immobilized on the 5 µm silica gel column 100 × 3 mm (Chiralpac) and an α1-acid glycoprotein (AGP) immobilized on the 5 µm silica gel column 100 × 4 mm (Chiralpac) were used. The compounds were dissolved at 0.5 mg/mL concentration in 50% propan-2-ol and ammonium acetate solution (pH = 7.4) mixtures for HSA measurements. The mobile phase was composed of 50 mM ammonium acetate solution (pH = 7.4) and propan-2-ol at 85/15 (v/v) for AGP, respectively. The flow of mobile phases was 0.5 mL×min^−1. Log k values for the selected mobile phase were determined for all studied compounds and standard substances. The % protein plasma binding (% PPB) values were calculated from the calibration curve according to Valko et al..
(§6) Calibration of the protein columns: The column performance check and the calibration check were performed before measurements. The racemic mixture of warfarin was used for their performance evaluation. The following calibration set of drugs was applied: bromazepam, carbamazepine, diclofenac, nicardipine, nizatidine, piroxicam for HSA and bromazepam, chlorpromazine, imipramine, nicardipine, nizatidine, propranolol, and warfarin for AGP. The analytical standards were purchased from Sigma Aldrich Steinhen, Steinheim am Albuch, Germany). The drugs were dissolved at 0.5 mg/mL concentration in 50% propan-2-ol and ammonium acetate solution mixtures (pH = 7.4). The obtained log k values from HPLC were plotted against the log K values (K—binding equilibrium constant, log K—linearized PPB) based on the literature data for plasma–protein binding (%, PPB). The following relationships were obtained: log KHSA = 0.2513 (±0.0984) + 1.0525 (±0.1171) log k HSA(8) n=6, R=0.9761, R^2 = 0.9528, Radj2 = 0.9410, s = 0.1948 log KAGP = 0.1733 (±0.0574) + 0.8902 (±0.0787) log k AGP(9) n=7, R=0.9810, R^2 = 0.9623, Radj2 = 0.9548, s = 0.1113
(§7) Log K values were converted into %PPB using the following equation [15]:(10) %PPB=101×10^logK/1+10^logK

[4] = system: α1-acid glycoprotein (AGP); assay: HPLC on immobilized AGP column, affinity and % plasma–protein binding; assay type: in vitro ADME, human; conditions: for log K AGP: binding equilibrium constant from calibration curve (Equation 9) of log k AGP; for fraction unbound: human, pH 7.4, % plasma–protein binding converted from log K AGP (Equation 10), read-out: %PPB AGP (converted); for log k AGP: retention on AGP column, 50 mM ammonium acetate pH 7.4 / propan-2-ol 85/15 (v/v)
Description: as §3, §4, §2, §5, §6, §7

[5] = parameters: method as in Kozyra et al. [31]; conditions: MeOH/20 mM acetate buffer, pH 7.4, ref Kozyra et al. [31], cited from earlier work; for log kw C-18: intercept of Soczewiński–Wachtmeister equation (water as mobile phase); for -S C-18: slope of Soczewiński–Wachtmeister equation

T1 sequence (P02768 25-609): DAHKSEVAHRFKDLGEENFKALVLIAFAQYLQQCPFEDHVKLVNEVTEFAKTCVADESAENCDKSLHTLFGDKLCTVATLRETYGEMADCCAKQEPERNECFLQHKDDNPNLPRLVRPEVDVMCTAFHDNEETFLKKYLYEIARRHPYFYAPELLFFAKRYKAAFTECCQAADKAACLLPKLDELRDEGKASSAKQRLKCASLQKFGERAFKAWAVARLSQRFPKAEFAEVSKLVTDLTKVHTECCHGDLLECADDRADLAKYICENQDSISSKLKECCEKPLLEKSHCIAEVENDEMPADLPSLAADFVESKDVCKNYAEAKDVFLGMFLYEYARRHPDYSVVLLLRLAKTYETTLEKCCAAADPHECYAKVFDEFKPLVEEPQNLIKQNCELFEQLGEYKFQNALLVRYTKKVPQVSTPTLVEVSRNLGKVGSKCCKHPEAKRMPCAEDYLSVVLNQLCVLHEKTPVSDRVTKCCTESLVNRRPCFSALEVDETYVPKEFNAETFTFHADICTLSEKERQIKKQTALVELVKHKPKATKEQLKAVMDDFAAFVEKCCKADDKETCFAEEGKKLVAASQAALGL

SMILES | Log k IAM ([1]; ACN 0.10 v/v in mobile phase) | Log k IAM ([1]; ACN 0.15 v/v in mobile phase) | Log k IAM ([1]; ACN 0.20 v/v in mobile phase) | Log k IAM ([1]; ACN 0.25 v/v in mobile phase) | Log k IAM ([1]; ACN 0.30 v/v in mobile phase) | Log k IAM ([1]; ACN 0.35 v/v in mobile phase) | log kw IAM [1] | -S IAM [1] | Log k Chol ([2]; MeOH 0.35 v/v in mobile phase) | Log k Chol ([2]; MeOH 0.40 v/v in mobile phase) | Log k Chol ([2]; MeOH 0.45 v/v in mobile phase) | Log k Chol ([2]; MeOH 0.50 v/v in mobile phase) | Log k Chol ([2]; MeOH 0.60 v/v in mobile phase) | Log k Chol ([2]; MeOH 0.80 v/v in mobile phase) | log kw Chol [2] | -S Chol [2] | log K HSA [3] | fraction unbound [3] | log k HSA [3] | log K AGP [4] | further results
O=C(COc1ccccc1)NNC(=S)Nc1ccccc1Cl [Compound 3] | 1.022 | 0.794 | 0.515 | 0.291 | -0.138 | -0.209 | 1.5588 | 5.2422 | 0.917 | 0.759 | 0.461 | 0.198 | -0.068 | -1.020 | 2.3437 | 4.1573 | 1.2059 | 0.049 | 0.9070 | 0.5523 | Log k Chol ([2]; MeOH 0.30 v/v in mobile phase): 1.024; fraction unbound [4]: 0.211; log k AGP [4]: 0.4257; log kw C-18 [5]: 2.3929; -S C-18 [5]: 4.5312
O=C(COc1ccccc1)NNC(=S)Nc1ccccc1I [Compound 4] | 1.158 | 0.893 | 0.642 | 0.451 | -0.029 | -0.138 | 1.7099 | 5.3942 | 0.974 | 0.747 | 0.519 | 0.244 | -0.037 | -0.938 | 2.3754 | 4.1215 | 1.5037 | 0.021 | 1.1899 | 0.6707 | Log k Chol ([2]; MeOH 0.30 v/v in mobile phase): 1.105; fraction unbound [4]: 0.168; log k AGP [4]: 0.5588; log kw C-18 [5]: 2.4824; -S C-18 [5]: 4.4182
O=C(COc1ccccc1)NNC(=S)Nc1cccc(F)c1 [Compound 5] | 0.876 | 0.565 | 0.312 | 0.024 | -0.274 | -0.441 | 1.4283 | 5.5312 | 0.957 | 0.699 | 0.487 | 0.184 | -0.057 | -1.065 | 2.4598 | 4.3726 | 1.1581 | 0.056 | 0.8615 | 0.5586 | Log k IAM ([1]; ACN 0.05 v/v in mobile phase): 1.193; fraction unbound [4]: 0.209; log k AGP [4]: 0.4328; log kw C-18 [5]: 2.4592; -S C-18 [5]: 4.7921
